“And” between values parts separate entries of the source, which are not always exact repeats. Identical values can stand only once. ± gives the expanded uncertainty stated by the source.
Test: xn = mol fraction of the nth substance listed
Conditions: 313.15 K, Liquid, Vibrating tube method

CCCCCCCCC [nonane] + CCCO
Conditions | mass density
100 kPa, x2 = 0.7021 | 741.23 ± 4.8 kg/m3
100 kPa, x2 = 0.8941 | 766.16 ± 4.9 kg/m3
1000 kPa, x2 = 0.7021 | 742.27 ± 4.8 kg/m3
1020 kPa, x2 = 0.8941 | 767.45 ± 4.9 kg/m3
2000 kPa, x2 = 0.8941 | 768.33 ± 4.9 kg/m3
2010 kPa, x2 = 0.7021 | 743.17 ± 4.8 kg/m3
3000 kPa, x2 = 0.7021 | 744.09 ± 4.8 kg/m3
3010 kPa, x2 = 0.8941 | 769.22 ± 4.9 kg/m3
4010 kPa, x2 = 0.7021 | 745 ± 4.8 kg/m3
4010 kPa, x2 = 0.8941 | 770.09 ± 4.9 kg/m3
5010 kPa, x2 = 0.7021 | 745.89 ± 4.8 kg/m3
5010 kPa, x2 = 0.8941 | 770.95 ± 4.9 kg/m3
6000 kPa, x2 = 0.3229 | 689.86 ± 4.4 kg/m3
6000 kPa, x2 = 0.8941 | 771.82 ± 4.9 kg/m3
6010 kPa, x2 = 0.2315 | 670.36 ± 4.3 kg/m3
6010 kPa, x2 = 0.4272 | 717.03 ± 4.6 kg/m3
6020 kPa, x2 = 0.1231 | 666.76 ± 4.3 kg/m3
6020 kPa, x2 = 0.7021 | 746.77 ± 4.8 kg/m3
7000 kPa, x2 = 0.1231 | 667.99 ± 4.3 kg/m3
7000 kPa, x2 = 0.3229 | 691.15 ± 4.4 kg/m3
7000 kPa, x2 = 0.8941 | 772.68 ± 5 kg/m3
7010 kPa, x2 = 0.7021 | 747.64 ± 4.8 kg/m3
7020 kPa, x2 = 0.2315 | 671.62 ± 4.3 kg/m3
7020 kPa, x2 = 0.4272 | 718.27 ± 4.6 kg/m3
8000 kPa, x2 = 0.1231 | 669.23 ± 4.3 kg/m3
8000 kPa, x2 = 0.3229 | 692.44 ± 4.4 kg/m3
8010 kPa, x2 = 0.4272 | 719.48 ± 4.6 kg/m3
8010 kPa, x2 = 0.7021 | 748.52 ± 4.8 kg/m3
8010 kPa, x2 = 0.8941 | 773.53 ± 5 kg/m3
8020 kPa, x2 = 0.2315 | 672.88 ± 4.3 kg/m3
9000 kPa, x2 = 0.1231 | 670.48 ± 4.3 kg/m3
9000 kPa, x2 = 0.7021 | 749.39 ± 4.8 kg/m3
9000 kPa, x2 = 0.8941 | 774.38 ± 5 kg/m3
9010 kPa, x2 = 0.3229 | 693.71 ± 4.5 kg/m3
9010 kPa, x2 = 0.4272 | 720.71 ± 4.6 kg/m3
9020 kPa, x2 = 0.2315 | 674.14 ± 4.3 kg/m3
10010 kPa, x2 = 0.2315 | 675.41 ± 4.3 kg/m3
10010 kPa, x2 = 0.4272 | 721.93 ± 4.6 kg/m3
10010 kPa, x2 = 0.7021 | 750.23 ± 4.8 kg/m3
10020 kPa, x2 = 0.8941 | 775.22 ± 5 kg/m3
11000 kPa, x2 = 0.8941 | 776.04 ± 5 kg/m3
11010 kPa, x2 = 0.1231 | 672.98 ± 4.3 kg/m3
11010 kPa, x2 = 0.2315 | 676.62 ± 4.3 kg/m3
11010 kPa, x2 = 0.4272 | 723.15 ± 4.6 kg/m3
11020 kPa, x2 = 0.3229 | 696.2 ± 4.5 kg/m3
11020 kPa, x2 = 0.7021 | 751.07 ± 4.8 kg/m3
12000 kPa, x2 = 0.1231 | 674.18 ± 4.3 kg/m3
12000 kPa, x2 = 0.3229 | 697.42 ± 4.5 kg/m3
12010 kPa, x2 = 0.2315 | 677.87 ± 4.3 kg/m3
12010 kPa, x2 = 0.4272 | 724.32 ± 4.6 kg/m3
12010 kPa, x2 = 0.7021 | 751.91 ± 4.8 kg/m3
12020 kPa, x2 = 0.8941 | 776.87 ± 5 kg/m3
13000 kPa, x2 = 0.2315 | 679.08 ± 4.4 kg/m3
13000 kPa, x2 = 0.4272 | 725.44 ± 4.7 kg/m3
13010 kPa, x2 = 0.1231 | 675.41 ± 4.3 kg/m3
13010 kPa, x2 = 0.3229 | 698.65 ± 4.5 kg/m3
13010 kPa, x2 = 0.8941 | 777.67 ± 5 kg/m3
13020 kPa, x2 = 0.7021 | 752.73 ± 4.8 kg/m3
14000 kPa, x2 = 0.1231 | 676.57 ± 4.3 kg/m3
14010 kPa, x2 = 0.2315 | 680.27 ± 4.4 kg/m3
14010 kPa, x2 = 0.3229 | 699.83 ± 4.5 kg/m3
14010 kPa, x2 = 0.4272 | 726.63 ± 4.7 kg/m3
14010 kPa, x2 = 0.8941 | 778.47 ± 5 kg/m3
14020 kPa, x2 = 0.7021 | 753.54 ± 4.8 kg/m3
15010 kPa, x2 = 0.1231 | 717.43 ± 4.6 kg/m3 and 677.73 ± 4.3 kg/m3
15010 kPa, x2 = 0.2315 | 681.42 ± 4.4 kg/m3 and 721.96 ± 4.6 kg/m3
15010 kPa, x2 = 0.3229 | 726.26 ± 4.7 kg/m3
15010 kPa, x2 = 0.4272 | 727.76 ± 4.7 kg/m3 and 732.14 ± 4.7 kg/m3
15020 kPa, x2 = 0.3229 | 700.99 ± 4.5 kg/m3
15020 kPa, x2 = 0.7021 | 754.35 ± 4.8 kg/m3
15020 kPa, x2 = 0.8941 | 779.28 ± 5 kg/m3
16000 kPa, x2 = 0.8941 | 780.06 ± 5 kg/m3
16010 kPa, x2 = 0.2315 | 682.56 ± 4.4 kg/m3 and 722.75 ± 4.6 kg/m3
16010 kPa, x2 = 0.7021 | 755.14 ± 4.8 kg/m3
16020 kPa, x2 = 0.1231 | 718.2 ± 4.7 kg/m3
16020 kPa, x2 = 0.3229 | 702.15 ± 4.5 kg/m3 and 727.04 ± 4.7 kg/m3
16020 kPa, x2 = 0.4272 | 728.86 ± 4.7 kg/m3 and 732.94 ± 4.7 kg/m3
17000 kPa, x2 = 0.4272 | 729.95 ± 4.7 kg/m3 and 733.7 ± 4.7 kg/m3
17010 kPa, x2 = 0.1231 | 718.99 ± 4.6 kg/m3
17010 kPa, x2 = 0.2315 | 683.64 ± 4.4 kg/m3 and 723.54 ± 4.6 kg/m3
17010 kPa, x2 = 0.3229 | 727.83 ± 4.7 kg/m3
17010 kPa, x2 = 0.7021 | 755.92 ± 4.8 kg/m3
17010 kPa, x2 = 0.8941 | 780.82 ± 5 kg/m3
17020 kPa, x2 = 0.1231 | 679.98 ± 4.4 kg/m3
17020 kPa, x2 = 0.3229 | 703.28 ± 4.5 kg/m3
18000 kPa, x2 = 0.7021 | 756.69 ± 4.8 kg/m3
18010 kPa, x2 = 0.1231 | 719.75 ± 4.6 kg/m3
18010 kPa, x2 = 0.2315 | 684.75 ± 4.5 kg/m3 and 724.3 ± 4.7 kg/m3
18010 kPa, x2 = 0.3229 | 704.37 ± 4.5 kg/m3 and 728.61 ± 4.7 kg/m3
18010 kPa, x2 = 0.4272 | 734.49 ± 4.7 kg/m3
18010 kPa, x2 = 0.8941 | 781.6 ± 5 kg/m3
18020 kPa, x2 = 0.1231 | 681.03 ± 4.4 kg/m3
